{"source": "patent US20230111310A1", "about": "“CARBOXYLIC ACID DERIVATIVE-SUBSTITUTED IMINO ARYL COMPOUND, PREPARATION METHOD THEREFOR, HERBICIDAL COMPOSITION AND USE THEREOF” (Qingdao Kingagroot Chemical Compound Co., Ltd., priority 2020, published 2023)", "data": [{"system": "Echinochloa crusgalli", "assay": "Weeding effect in post-emergence stage", "type": "in vivo", "settings": "Dose 15 g/ha; level of fresh weight growth control rate", "how_it_was_run": "(§1)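 Weeds were treated post-emergence at 2-3 leaves with compound doses from 7.5 up to 500 g/ha, formulated in acetone–Tween 80 with methyl oleate synergist. Efficacy was assessed as growth control after 3 weeks.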", "values": [{"molecule": "C[C@@H](O/N=C/c1cc(-n2c(=O)cc(C(F)(F)F)n(C)c2=O)c(F)cc1Cl)C(=O)OC/C=C/Cl", "note": "[225(R)]", "Weeding effect in post-emergence stage, Echinochloa crusgalli": "5 (Level 5: growth control rate is above 85%)"}, {"molecule": "C[C@@H](O/N=C/c1cc(-n2c(=O)cc(C(F)(F)F)n(C)c2=O)c(F)cc1Cl)C(=O)OCC#N", "note": "[226(R)]", "Weeding effect in post-emergence stage, Echinochloa crusgalli": "5 (Level 5: growth control rate is above 85%)"}, {"molecule": "C[C@@H](O/N=C/c1cc(-n2c(=O)cc(C(F)(F)F)n(C)c2=O)c(F)cc1Cl)C(=O)OCCC#N", "note": "[227(R)]", "Weeding effect in post-emergence stage, Echinochloa crusgalli": "5 (Level 5: growth control rate is above 85%)"}, {"molecule": "C[C@@H](O/N=C/c1cc(-n2c(=O)cc(C(F)(F)F)n(C)c2=O)c(F)cc1Cl)C(=O)OCCO", "note": "[228(R)]", "Weeding effect in post-emergence stage, Echinochloa crusgalli": "5 (Level 5: growth control rate is above 85%)"}, {"molecule": "COCCOC(=O)[C@@H](C)O/N=C/c1cc(-n2c(=O)cc(C(F)(F)F)n(C)c2=O)c(F)cc1Cl", "note": "[230(R)]", "Weeding effect in post-emergence stage, Echinochloa crusgalli": "5 (Level 5: growth control rate is above 85%)"}, {"molecule": "CCOCCOC(=O)[C@@H](C)O/N=C/c1cc(-n2c(=O)cc(C(F)(F)F)n(C)c2=O)c(F)cc1Cl", "note": "[231(R)]", "Weeding effect in post-emergence stage, Echinochloa crusgalli": "5 (Level 5: growth control rate is above 85%)"}, {"molecule": "CCCCOCCOC(=O)[C@@H](C)O/N=C/c1cc(-n2c(=O)cc(C(F)(F)F)n(C)c2=O)c(F)cc1Cl", "note": "[232(R)]", "Weeding effect in post-emergence stage, Echinochloa crusgalli": "5 (Level 5: growth control rate is above 85%)"}]}, {"system": "Eleusine indica", "assay": "Weeding effect in post-emergence stage", "type": "in vivo", "settings": "Dose 15 g/ha; level of fresh weight growth control rate", "how_it_was_run": "as §1", "values": [{"molecule": "C[C@@H](O/N=C/c1cc(-n2c(=O)cc(C(F)(F)F)n(C)c2=O)c(F)cc1Cl)C(=O)OC/C=C/Cl", "note": "[225(R)]", "Weeding effect in post-emergence stage, Eleusine indica": "5 (Level 5: growth control rate is above 85%)"}, {"molecule": "C[C@@H](O/N=C/c1cc(-n2c(=O)cc(C(F)(F)F)n(C)c2=O)c(F)cc1Cl)C(=O)OCC#N", "note": "[226(R)]", "Weeding effect in post-emergence stage, Eleusine indica": "5 (Level 5: growth control rate is above 85%)"}, {"molecule": "C[C@@H](O/N=C/c1cc(-n2c(=O)cc(C(F)(F)F)n(C)c2=O)c(F)cc1Cl)C(=O)OCCC#N", "note": "[227(R)]", "Weeding effect in post-emergence stage, Eleusine indica": "5 (Level 5: growth control rate is above 85%)"}, {"molecule": "C[C@@H](O/N=C/c1cc(-n2c(=O)cc(C(F)(F)F)n(C)c2=O)c(F)cc1Cl)C(=O)OCCO", "note": "[228(R)]", "Weeding effect in post-emergence stage, Eleusine indica": "5 (Level 5: growth control rate is above 85%)"}, {"molecule": "COCCOC(=O)[C@@H](C)O/N=C/c1cc(-n2c(=O)cc(C(F)(F)F)n(C)c2=O)c(F)cc1Cl", "note": "[230(R)]", "Weeding effect in post-emergence stage, Eleusine indica": "5 (Level 5: growth control rate is above 85%)"}, {"molecule": "CCOCCOC(=O)[C@@H](C)O/N=C/c1cc(-n2c(=O)cc(C(F)(F)F)n(C)c2=O)c(F)cc1Cl", "note": "[231(R)]", "Weeding effect in post-emergence stage, Eleusine indica": "5 (Level 5: growth control rate is above 85%)"}, {"molecule": "CCCCOCCOC(=O)[C@@H](C)O/N=C/c1cc(-n2c(=O)cc(C(F)(F)F)n(C)c2=O)c(F)cc1Cl", "note": "[232(R)]", "Weeding effect in post-emergence stage, Eleusine indica": "5 (Level 5: growth control rate is above 85%)"}]}, {"system": "Digitaria sanguinalis", "assay": "Weeding effect in post-emergence stage", "type": "in vivo", "settings": "Dose 15 g/ha; level of fresh weight growth control rate", "how_it_was_run": "as §1", "values": [{"molecule": "C[C@@H](O/N=C/c1cc(-n2c(=O)cc(C(F)(F)F)n(C)c2=O)c(F)cc1Cl)C(=O)OC/C=C/Cl", "note": "[225(R)]", "Weeding effect in post-emergence stage, Digitaria sanguinalis": "5 (Level 5: growth control rate is above 85%)"}, {"molecule": "C[C@@H](O/N=C/c1cc(-n2c(=O)cc(C(F)(F)F)n(C)c2=O)c(F)cc1Cl)C(=O)OCC#N", "note": "[226(R)]", "Weeding effect in post-emergence stage, Digitaria sanguinalis": "5 (Level 5: growth control rate is above 85%)"}, {"molecule": "C[C@@H](O/N=C/c1cc(-n2c(=O)cc(C(F)(F)F)n(C)c2=O)c(F)cc1Cl)C(=O)OCCC#N", "note": "[227(R)]", "Weeding effect in post-emergence stage, Digitaria sanguinalis": "5 (Level 5: growth control rate is above 85%)"}, {"molecule": "C[C@@H](O/N=C/c1cc(-n2c(=O)cc(C(F)(F)F)n(C)c2=O)c(F)cc1Cl)C(=O)OCCO", "note": "[228(R)]", "Weeding effect in post-emergence stage, Digitaria sanguinalis": "5 (Level 5: growth control rate is above 85%)"}, {"molecule": "COCCOC(=O)[C@@H](C)O/N=C/c1cc(-n2c(=O)cc(C(F)(F)F)n(C)c2=O)c(F)cc1Cl", "note": "[230(R)]", "Weeding effect in post-emergence stage, Digitaria sanguinalis": "5 (Level 5: growth control rate is above 85%)"}, {"molecule": "CCOCCOC(=O)[C@@H](C)O/N=C/c1cc(-n2c(=O)cc(C(F)(F)F)n(C)c2=O)c(F)cc1Cl", "note": "[231(R)]", "Weeding effect in post-emergence stage, Digitaria sanguinalis": "5 (Level 5: growth control rate is above 85%)"}, {"molecule": "CCCCOCCOC(=O)[C@@H](C)O/N=C/c1cc(-n2c(=O)cc(C(F)(F)F)n(C)c2=O)c(F)cc1Cl", "note": "[232(R)]", "Weeding effect in post-emergence stage, Digitaria sanguinalis": "5 (Level 5: growth control rate is above 85%)"}]}, {"system": "Alopecurus japonicus", "assay": "Weeding effect in post-emergence stage", "type": "in vivo", "settings": "Dose 15 g/ha; level of fresh weight growth control rate", "how_it_was_run": "as §1", "values": [{"molecule": "C[C@@H](O/N=C/c1cc(-n2c(=O)cc(C(F)(F)F)n(C)c2=O)c(F)cc1Cl)C(=O)OC/C=C/Cl", "note": "[225(R)]", "Weeding effect in post-emergence stage, Alopecurus japonicus": "5 (Level 5: growth control rate is above 85%)"}, {"molecule": "C[C@@H](O/N=C/c1cc(-n2c(=O)cc(C(F)(F)F)n(C)c2=O)c(F)cc1Cl)C(=O)OCC#N", "note": "[226(R)]", "Weeding effect in post-emergence stage, Alopecurus japonicus": "5 (Level 5: growth control rate is above 85%)"}, {"molecule": "C[C@@H](O/N=C/c1cc(-n2c(=O)cc(C(F)(F)F)n(C)c2=O)c(F)cc1Cl)C(=O)OCCC#N", "note": "[227(R)]", "Weeding effect in post-emergence stage, Alopecurus japonicus": "5 (Level 5: growth control rate is above 85%)"}, {"molecule": "C[C@@H](O/N=C/c1cc(-n2c(=O)cc(C(F)(F)F)n(C)c2=O)c(F)cc1Cl)C(=O)OCCO", "note": "[228(R)]", "Weeding effect in post-emergence stage, Alopecurus japonicus": "5 (Level 5: growth control rate is above 85%)"}, {"molecule": "COCCOC(=O)[C@@H](C)O/N=C/c1cc(-n2c(=O)cc(C(F)(F)F)n(C)c2=O)c(F)cc1Cl", "note": "[230(R)]", "Weeding effect in post-emergence stage, Alopecurus japonicus": "5 (Level 5: growth control rate is above 85%)"}, {"molecule": "CCOCCOC(=O)[C@@H](C)O/N=C/c1cc(-n2c(=O)cc(C(F)(F)F)n(C)c2=O)c(F)cc1Cl", "note": "[231(R)]", "Weeding effect in post-emergence stage, Alopecurus japonicus": "5 (Level 5: growth control rate is above 85%)"}, {"molecule": "CCCCOCCOC(=O)[C@@H](C)O/N=C/c1cc(-n2c(=O)cc(C(F)(F)F)n(C)c2=O)c(F)cc1Cl", "note": "[232(R)]", "Weeding effect in post-emergence stage, Alopecurus japonicus": "5 (Level 5: growth control rate is above 85%)"}]}, {"system": "Abutilon theophrasti", "assay": "Weeding effect in post-emergence stage", "type": "in vivo", "settings": "Dose 15 g/ha; level of fresh weight growth control rate", "how_it_was_run": "as §1", "values": [{"molecule": "C[C@@H](O/N=C/c1cc(-n2c(=O)cc(C(F)(F)F)n(C)c2=O)c(F)cc1Cl)C(=O)OC/C=C/Cl", "note": "[225(R)]", "Weeding effect in post-emergence stage, Abutilon theophrasti": "5 (Level 5: growth control rate is above 85%)"}, {"molecule": "C[C@@H](O/N=C/c1cc(-n2c(=O)cc(C(F)(F)F)n(C)c2=O)c(F)cc1Cl)C(=O)OCC#N", "note": "[226(R)]", "Weeding effect in post-emergence stage, Abutilon theophrasti": "5 (Level 5: growth control rate is above 85%)"}, {"molecule": "C[C@@H](O/N=C/c1cc(-n2c(=O)cc(C(F)(F)F)n(C)c2=O)c(F)cc1Cl)C(=O)OCCC#N", "note": "[227(R)]", "Weeding effect in post-emergence stage, Abutilon theophrasti": "5 (Level 5: growth control rate is above 85%)"}, {"molecule": "C[C@@H](O/N=C/c1cc(-n2c(=O)cc(C(F)(F)F)n(C)c2=O)c(F)cc1Cl)C(=O)OCCO", "note": "[228(R)]", "Weeding effect in post-emergence stage, Abutilon theophrasti": "5 (Level 5: growth control rate is above 85%)"}, {"molecule": "COCCOC(=O)[C@@H](C)O/N=C/c1cc(-n2c(=O)cc(C(F)(F)F)n(C)c2=O)c(F)cc1Cl", "note": "[230(R)]", "Weeding effect in post-emergence stage, Abutilon theophrasti": "5 (Level 5: growth control rate is above 85%)"}, {"molecule": "CCOCCOC(=O)[C@@H](C)O/N=C/c1cc(-n2c(=O)cc(C(F)(F)F)n(C)c2=O)c(F)cc1Cl", "note": "[231(R)]", "Weeding effect in post-emergence stage, Abutilon theophrasti": "5 (Level 5: growth control rate is above 85%)"}, {"molecule": "CCCCOCCOC(=O)[C@@H](C)O/N=C/c1cc(-n2c(=O)cc(C(F)(F)F)n(C)c2=O)c(F)cc1Cl", "note": "[232(R)]", "Weeding effect in post-emergence stage, Abutilon theophrasti": "5 (Level 5: growth control rate is above 85%)"}]}, {"system": "Setaria viridis", "assay": "Weeding effect in post-emergence stage", "type": "in vivo", "settings": "Dose 15 g/ha; level of fresh weight growth control rate", "how_it_was_run": "as §1", "values": [{"molecule": "C[C@@H](O/N=C/c1cc(-n2c(=O)cc(C(F)(F)F)n(C)c2=O)c(F)cc1Cl)C(=O)OC/C=C/Cl", "note": "[225(R)]", "Weeding effect in post-emergence stage, Setaria viridis": "5 (Level 5: growth control rate is above 85%)"}, {"molecule": "C[C@@H](O/N=C/c1cc(-n2c(=O)cc(C(F)(F)F)n(C)c2=O)c(F)cc1Cl)C(=O)OCC#N", "note": "[226(R)]", "Weeding effect in post-emergence stage, Setaria viridis": "5 (Level 5: growth control rate is above 85%)"}, {"molecule": "C[C@@H](O/N=C/c1cc(-n2c(=O)cc(C(F)(F)F)n(C)c2=O)c(F)cc1Cl)C(=O)OCCC#N", "note": "[227(R)]", "Weeding effect in post-emergence stage, Setaria viridis": "5 (Level 5: growth control rate is above 85%)"}, {"molecule": "C[C@@H](O/N=C/c1cc(-n2c(=O)cc(C(F)(F)F)n(C)c2=O)c(F)cc1Cl)C(=O)OCCO", "note": "[228(R)]", "Weeding effect in post-emergence stage, Setaria viridis": "5 (Level 5: growth control rate is above 85%)"}, {"molecule": "COCCOC(=O)[C@@H](C)O/N=C/c1cc(-n2c(=O)cc(C(F)(F)F)n(C)c2=O)c(F)cc1Cl", "note": "[230(R)]", "Weeding effect in post-emergence stage, Setaria viridis": "5 (Level 5: growth control rate is above 85%)"}, {"molecule": "CCOCCOC(=O)[C@@H](C)O/N=C/c1cc(-n2c(=O)cc(C(F)(F)F)n(C)c2=O)c(F)cc1Cl", "note": "[231(R)]", "Weeding effect in post-emergence stage, Setaria viridis": "5 (Level 5: growth control rate is above 85%)"}, {"molecule": "CCCCOCCOC(=O)[C@@H](C)O/N=C/c1cc(-n2c(=O)cc(C(F)(F)F)n(C)c2=O)c(F)cc1Cl", "note": "[232(R)]", "Weeding effect in post-emergence stage, Setaria viridis": "5 (Level 5: growth control rate is above 85%)"}]}]}
